For one assay, the target named is JAK2 (Homo sapiens (Human), UniProt O60674). Kind of assay: Jak biochemical HTRF assay, JAK2. The settings on record: HTRF biochemical assay, recombinant GST-tagged catalytic domain; read-out: JAK2 IC50.
A further assay deals with JAK1 (Homo sapiens (Human), UniProt P23458). Kind of assay: Jak biochemical HTRF assay, JAK1. As to conditions: HTRF biochemical assay, recombinant GST-tagged catalytic domain; read-out: JAK1 IC50. For orientation: TR-FRET usually uses a lanthanide donor and a delayed reading to cut background.
Chain of JAK1 (P23458 875-1153): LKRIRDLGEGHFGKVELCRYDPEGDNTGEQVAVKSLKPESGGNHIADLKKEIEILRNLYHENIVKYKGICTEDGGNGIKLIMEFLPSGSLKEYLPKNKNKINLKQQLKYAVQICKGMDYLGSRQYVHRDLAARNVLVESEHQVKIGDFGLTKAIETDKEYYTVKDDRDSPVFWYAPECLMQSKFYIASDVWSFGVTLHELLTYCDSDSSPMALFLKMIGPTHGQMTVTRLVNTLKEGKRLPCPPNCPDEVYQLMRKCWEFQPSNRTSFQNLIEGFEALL

Chain of JAK2 (O60674 849-1124): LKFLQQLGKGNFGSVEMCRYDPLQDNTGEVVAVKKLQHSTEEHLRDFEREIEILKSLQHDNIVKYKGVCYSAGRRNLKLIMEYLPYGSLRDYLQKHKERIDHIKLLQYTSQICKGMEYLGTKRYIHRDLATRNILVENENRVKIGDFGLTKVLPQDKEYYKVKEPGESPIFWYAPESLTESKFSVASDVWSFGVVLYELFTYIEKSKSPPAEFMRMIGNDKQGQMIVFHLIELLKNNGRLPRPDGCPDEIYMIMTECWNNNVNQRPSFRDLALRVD

The IC50 is the concentration at which inhibition is half-maximal. As to `N#C[C@H]1CCCC[C@@H]1n1nc(Nc2ccc(CNC(=O)c3cnco3)cc2)c2c(=O)[nH]ccc21` [Example 3-29, N-[4-({1-[(1S,2S)-2-cyanocyclohexyl]-4-oxo-4,5-dihydro-1H-pyrazolo[4,3-c]pyridin-3-yl}amino)benzyl]-1,3-oxazole-5-carboxamide], the half-inhibitory concentration (IC50) came to 1.5 nM on JAK2 and 0.32 nM at JAK1.
Consider `N#C[C@H]1CCCC[C@@H]1n1nc(Nc2ccc(CNC(=O)c3ncccn3)cc2)c2c(=O)[nH]ccc21` [Example 3-30, N-[4-({1-[(1S,2S)-2-cyanocyclohexyl]-4-oxo-4,5-dihydro-1H-pyrazolo[4,3-c]pyridin-3-yl}amino)benzyl]pyrimidine-2-carboxamide], for which the IC50 on JAK2 is 2 nM; on JAK1 it was 0.29 nM.
For `CC(O)c1cccc(Nc2nn([C@H]3CCCC[C@@H]3C#N)c3cc[nH]c(=O)c23)c1` (stereo partly drawn) [Example 3-31, (1S,2S)-2-(3-{[3-(1-hydroxyethyl)phenyl]amino}-4-oxo-4,5-dihydro-1H-pyrazolo[4,3-c]pyridin-1-yl)cyclohexanecarbonitrile] the same measures were 1.7 nM and 0.46 nM.
For `CC(C)(C)OC(=O)NCc1ccc(Nc2nn([C@H]3CCCC[C@@H]3C#N)c3cc[nH]c(=O)c23)cc1` [Example 3-32, tert-butyl [4-({1-[(1S,2S)-2-cyanocyclohexyl]-4-oxo-4,5-dihydro-1H-pyrazolo[4,3-c]pyridin-3-yl}amino)benzyl]carbamate], the IC50 at JAK2 is 1.5 nM; at JAK1 it was 0.45 nM.
For `N#C[C@H]1CCCC[C@@H]1n1nc(Nc2cccc(CN3CCOCC3)c2)c2c(=O)[nH]ccc21` [Example 3-33, (1S,2S)-2-(3-{[3-(morpholin-4-ylmethyl)phenyl]amino}-4-oxo-4,5-dihydro-1H-pyrazolo[4,3-c]pyridin-1-yl)cyclohexanecarbonitrile] the same measures were 1.7 nM and 1.3 nM.
In the same order, the values of `CN(C)Cc1cccc(Nc2nn([C@H]3CCCC[C@@H]3C#N)c3cc[nH]c(=O)c23)c1` [Example 3-34, (1S,2S)-2-[3-({3-[(dimethylamino)methyl]phenyl}amino)-4-oxo-4,5-dihydro-1H-pyrazolo[4,3-c]pyridin-1-yl]cyclohexanecarbonitrile] are 1.1 nM and 1.1 nM.
In the case of `CC(C)(C)OC(=O)NCc1cc(Nc2nn([C@H]3CCCC[C@@H]3C#N)c3cc[nH]c(=O)c23)ccc1F` [Example 3-35, tert-butyl [5-({1-[(1S,2S)-2-cyanocyclohexyl]-4-oxo-4,5-dihydro-1H-pyrazolo[4,3-c]pyridin-3-yl}amino)-2-fluorobenzyl]carbamate], the concentration for half-maximal inhibition (IC50) came out at 4.7 nM on JAK2 and 3.2 nM on JAK1.
In the same order, the values of `CC(C)(C)OC(=O)NCc1cc(F)cc(Nc2nn([C@H]3CCCC[C@@H]3C#N)c3cc[nH]c(=O)c23)c1` [Example 3-36, tert-butyl [3-({1-[(1S,25)-2-cyanocyclohexyl]-4-oxo-4,5-dihydro-1H-pyrazolo[4,3-c]pyridin-3-yl}amino)-5-fluorobenzyl]carbamate] are 3.8 nM and 2.3 nM.
For `Cc1cn(Cc2cccc(Nc3nn([C@H]4CCCC[C@@H]4C#N)c4cc[nH]c(=O)c34)c2)nn1` [Example 3-37, (1S,2S)-2-[3-({3-[(4-methyl-1H-1,2,3-triazol-1-yl)methyl]phenyl}amino)-4-oxo-4,5-dihydro-1H-pyrazolo[4,3-c]pyridin-1-yl]cyclohexanecarbonitrile] the same measures were 2.1 nM and 0.18 nM.
In the same order, the values of `CC1(C)OCC(C)(c2cccc(Nc3nn([C@H]4CCCC[C@@H]4C#N)c4cc[nH]c(=O)c34)c2)O1` (stereo partly drawn) [Example 3-38, (1S,2S)-2-{4-Oxo-3-[3-(2,2,4-trimethyl-[1,3]dioxolan-4-yl)-phenylamino]-4,5-dihydro-pyrazolo[4,3-c]pyridin-1-yl}-cyclohexanecarbonitrile] are 16 nM and 5 nM.
As for `N#C[C@H]1CCCC[C@@H]1n1nc(Nc2cccc(CNCC(F)(F)F)c2)c2c(=O)[nH]ccc21` [Example 3-39, (1S,2S)-2-{4-oxo-3-[(3-{[(2,2,2-trifluoroethyl)amino]methyl}phenyl)amino]-4,5-dihydro-1H-pyrazolo[4,3-c]pyridin-1-yl}cyclohexanecarbonitrile], the IC50 is 1.8 nM on JAK2 and 0.64 nM on JAK1.
In the same order, the values of `CC(=O)NCc1cc(Nc2nn([C@H]3CCCC[C@@H]3C#N)c3cc[nH]c(=O)c23)ccc1S(=O)(=O)N(C)C` [Example 3-40, N-[5-({1-[(1S,2S)-2-cyanocyclohexyl]-4-oxo-4,5-dihydro-1H-pyrazolo[4,3-c]pyridin-3-yl}amino)-2-(dimethylsulfamoyl)benzyl]acetamide] are 0.79 nM and 0.1 nM.
For `CC(C)(C)[S@@+]([O-])N[C@@H](c1cccc(Nc2nn([C@H]3CCCC[C@@H]3C#N)c3cc[nH]c(=O)c23)c1)C(F)(F)F` [Example 3-41, N-{(1S)-1-[3-({1-[(1S,2S)-2-cyanocyclohexyl]-4-oxo-4,5-dihydro-1H-pyrazolo[4,3-c]pyridin-3-yl}amino)phenyl]-2,2,2-trifluoroethyl}-2-methylpropane-2-sulfinamide] the same measures were 29 nM and 1.6 nM.
With `CC(C)(C)[S@+]([O-])N[C@H](c1cccc(Nc2nn([C@H]3CCCC[C@@H]3C#N)c3cc[nH]c(=O)c23)c1)C(F)(F)F` [Example 3-42, N-{(1R)-1-[3-({1-[(1S,2S)-2-cyanocyclohexyl]-4-oxo-4,5-dihydro-1H-pyrazolo[4,3-c]pyridin-3-yl}amino)phenyl]-2,2,2-trifluoroethyl}-2-methylpropane-2-sulfinamide], the results for the half-maximal inhibitory concentration (IC50) on JAK2 and at JAK1 were 13 nM and 0.46 nM, respectively.
For `N#C[C@H]1CCCC[C@@H]1n1nc(Nc2cccc(Cn3cccn3)c2)c2c(=O)[nH]ccc21` [Example 3-43, (1S,2S)-2-(4-oxo-3-{[3-(1H-pyrazol-1-ylmethyl)phenyl]amino}-4,5-dihydro-1H-pyrazolo[4,3-c]pyridin-1-yl)cyclohexanecarbonitrile] the same measures were 1.7 nM and 1.4 nM.
For `N#C[C@H]1CCCC[C@@H]1n1nc(Nc2ccc(C(=O)N3CCCC3)cc2)c2c(=O)[nH]ccc21` [Example 3-44, (1S,2S)-2-(4-oxo-3-{[4-(pyrrolidin-1-ylcarbonyl)phenyl]amino}-4,5-dihydro-1H-pyrazolo[4,3-c]pyridin-1-yl)cyclohexanecarbonitrile] the same measures were 4.8 nM and 1.4 nM.
In the case of `N#C[C@H]1CCCC[C@@H]1n1nc(Nc2ccc(Cn3nccn3)cc2)c2c(=O)[nH]ccc21` [Example 3-45, (1S,2S)-2-(4-oxo-3-{[4-(2H-1,2,3-triazol-2-ylmethyl)phenyl]amino}-4,5-dihydro-1H-pyrazolo[4,3-c]pyridin-1-yl)cyclohexanecarbonitrile], the IC50 on JAK2 turned out to be 0.42 nM; on JAK1, 0.37 nM.
As to `N#C[C@H]1CCCC[C@@H]1n1nc(Nc2ccc(Cn3ccnn3)cc2)c2c(=O)[nH]ccc21` [Example 3-46, (1S,2S)-2-(4-oxo-3-{[4-(1H-1,2,3-triazol-1-ylmethyl)phenyl]amino}-4,5-dihydro-1H-pyrazolo[4,3-c]pyridin-1-yl)cyclohexanecarbonitrile], the IC50 on JAK2 came out at 0.34 nM; on JAK1, 0.095 nM.

Values taken from US9725445B2, “Cycloalkyl nitrile pyrazolo pyridones as Janus kinase inhibitors” (Merck Sharp & Dohme Corp., priority 2013, dated 2017).
